US11098057B2, “9,10,11,12-tetrahydro-8H-[1,4]diazepino[5′,6′:4,5]thieno[3,2-F]quinolin-8-one compounds and uses thereof” (Celgene CAR LLC, priority 2017, dated 2021)

System: phosphorylation of Hsp27 (Ser78) in Thp-1 human acute monocytic leukemia cells
Assay: MK2 cellular assay, detection of total and phospho-Hsp27 (Serine 78) by MSD ELISA (Thp1)
Type: cell-based
Details: Thp-1 cells, 1 hour compound, then 50 ng/mL LPS for 45 minutes, read-out: pHSP27 signaling EC50
Procedure: MK2 Cellular Assay—Detection of Total and Phospho-Hsp27 (Serine 78) by MSD ELISA (Thp1)
Compounds of the invention can be assayed in Thp-1 human acute monocytic leukemia cells to measure inhibition of MK2 activity according to procedures detailed in the '463 application.
Specifically, Thp-1 cells were grown in culture medium containing RPMI/10% FBS (fetal bovine serum)/0.05 mM 2-mercaptoethanol. 72 hours prior to the assay, 8×10^4 cells per well were plated in a 96 well flat bottom plate along with 10 ng/mL phorbol 12-myristate 13-acetate (PMA). Cells were cultured in an incubator at 37° C. until needed for the assay. Cell plate media was replaced with culture media just prior to assay while compound dilutions were being made.
Stock solutions of test compound, 1 mM in DMSO, were prepared. […]
The MULTI-SPOT Phospho(Ser78)/Total HSP27 ELISA Assay kit was purchased from Meso Scale […] (MSD; catalog #K15128D). […] 150 μl/well 1×MSD read buffer was added (4× read buffer supplied with kit) and the plate was analyzed on the MSD SECTOR®Imager for analysis. The SECTOR®Imager measures intensity of emitted light to provide a quantitative measure of phosphorylated HSP27 (Ser78) and total HSP27 present in the sample. The relative percent phosphoprotein in a sample is calculated by dividing the Phospho-HSP27 signal intensity over the total HSP27 signal intensity measured in each well.

For CCOCc1cnc(Cl)nc1Oc1ccc2c(ccc3sc4c(c32)NC[C@H](C)NC4=O)n1 [Compound I-82], the EC50 was 101 to 500 nM.
